Reference: patent publication US12514929B2, “Deformable nano-scale vehicles (DNVS) for trans-blood brain barrier, trans-mucosal, and transdermal drug delivery” (The Regents of the University of California, priority 2017, dated 2026)

Assays:
[1] = Pharmacokinetics of galangin and progalangin in mice; format: in vivo; details: at 1 h
Description: (§1) Progalangin reduced Aβ40 as well as Aβ42 levels (FIG. 19B).

Aβ40 = test: Effect of galangin and progalangin on Aβ40; set-up: species or system mice; details: mouse, in vivo
Description: as §1

Aβ42 = test: Effect of galangin and progalangin on Aβ42; set-up: species or system mice; details: mouse, in vivo
Description: as §1

- Brain Cmax [1]: approximately 50 ng/g
SMILES: O=c1c(O)c(-c2ccccc2)oc2cc(O)cc(O)c12 [Galangin, galangin]
- Aβ40 levels (Aβ40): reduce Aβ40 levels
- Aβ42 levels (Aβ42): no effect
